# Measured values as given in publication PMC9249674, “A small-molecule Skp1 inhibitor elicits cell death by p53-dependent mechanism” (iScience, 2022).
# Assays:
# [1] = tested on: H358 cells; test: Caspase-Glo 3/7 activity; assay type: cell-based; settings: dose- and time-dependent treatment
# Protocol: The activities of caspase-3/7, −8 and −9 were measured using Caspase-Glo® 3/7,8, and 9 assay kits (Promega, Madison, WI, USA) according to the manufacturer’s protocol. Briefly, the cells were plated over-night in a white 384 well microplate, and then treated as indicated with Z0933M. After treatment, 25 μL of each caspase substrate was added and incubated at room temperature for 30 min. Upon activation of caspase in the apoptotic cells, the substrate will give a luminescence signal after cleavage of the aminoluciferin-labelled synthetic tetrapeptide. Luminescent signals were detected using an EnSpire multimode plate reader (PerkinElmer). For inhibitor interventions and Skp1 overexpression, the experiments were performed in 96 well format.
# [2] = tested on: HepG2; test: Cell viability assay (Cell-Titer GLO); assay type: cell-based; settings: Homo sapiens, Liver cancer, 48 hrs, read-out: Anti-proliferative EC50
# Protocol: (§1) For cell viability, cells were seeded in 384 opaque-walled plates with clear bottoms at 300–500 cells per well (optimum density for growth) in a total volume of 20 μL of media. The media was according to culture conditions of each individual cell line (mentioned above). After 12 hrs, compounds were added in a total volume of 5 μL of media (two-fold diluted) to each well with final concentrations from 5 nM to 30 μM. The measurements were conducted 48 hrs after seeding of the cells. Then, 25 μL of Cell-Titer GLO reagent (Promega) was added, and luminescence was measured on an EnSpire multimode plate reader (PerkinElmer), according to the manufacturer’s instructions. The estimated in vitro half-maximal inhibitory concentration (EC50) values were calculated using GraphPad Prism® v6.0 (San Diego, CA) software. The cell viability for A549 cells was also performed for 72- and 96-hrs by using the same experimental conditions as described above.
# [3] = tested on: U2OS; test: Cell viability assay (Cell-Titer GLO); assay type: cell-based; settings: Homo sapiens, Osteosarcoma, 48 hrs, read-out: Anti-proliferative EC50
# Protocol: as §1
# [4] = tested on: MCF-7; test: Cell viability assay (Cell-Titer GLO); assay type: cell-based; settings: Homo sapiens, MCF7, Breast cancer, 48 hrs, read-out: Anti-proliferative EC50
# Protocol: as §1
# [5] = tested on: A549 cells; test: Flow cytometric analysis of cell cycle; assay type: cell-based, human; settings: 0.5 μM, asynchronized and synchronized A549 cells
# Protocol: Both asynchronous and synchronous cells were analyzed by flow cytometry with DNA staining to determine the total amount of DNA. For asynchronous analysis, A549 cells were seeded into six-well plates at a density of 6 × 10^5 cells/well. After 14 to 16 hrs of seeding, the cells were treated with indicated concentrations of Z0933M for 24 hrs. Then, the cells were harvested, washed twice with cold PBS, and fixed in cold 70% ethanol on ice (around 4°C) for 4 hrs. Next, the cells were washed twice with cold PBS, resuspended with cold PBS containing […] RnaseA (Sigma), and incubated for 30 min at 37°C. Then, PBS containing […] propidium iodide (PI) (Sigma) was directly added, the cells were mixed gently, and incubated for 5–10 min at room temperature in the dark. Finally, the cell-cycle phase distribution was analyzed in three different experiments using flow cytometry (BD Biosciences, San Diego, CA, USA). At least 10,000 events/sample were acquired. Assays were conducted three times independently. The data was analyzed by FlowJo V10 software. For synchronous cell cycle analysis, cells were synchronized to G1/S boundary by a double-thymidine blockade ([Liu et al., 2015]), and then exposed to Z0933M for time-dependent or dose-dependent analysis. […] Cell cycle distribution was analyzed by flow cytometry (BD Biosciences, San Diego, CA, USA) and FlowJo V10 software.
# [6] = target: T1, Skp1 interaction with NIPA (Homo sapiens, UniProt P63208); test: Cell-based FRET assay in HEK293 cells; settings: 4 hrs, increasing concentrations
# T1 construct: host or cells: HEK293
# T1 sequence (P63208 whole entry): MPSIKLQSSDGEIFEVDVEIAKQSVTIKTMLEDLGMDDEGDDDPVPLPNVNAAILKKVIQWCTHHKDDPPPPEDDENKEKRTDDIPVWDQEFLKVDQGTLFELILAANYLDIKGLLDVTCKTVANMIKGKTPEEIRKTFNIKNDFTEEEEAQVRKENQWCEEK
# [7] = target: T2, Skp1^WT (Homo sapiens, UniProt P63208); test: SPRi assay; assay type: binding
# T2 construct: recombinantly purify intact (Skp1^WT) and truncate (ΔSkp1^1−140; lacking H8-helix) forms of Skp1; His6; made in house; host or cells: Escherichia coli BL21 (DE3)
# T2 sequence (P63208 whole entry, the tested form may be a part): as the sequence (P63208 whole entry) above
# Protocol: Freshly deposited gold coated standard SPRi chips/slides (Plexera, LLC) were cleaned, and compound(s) at 10 mM concentration in 100% DMSO were spotted on the chips using a micropipette. After this, the slides were left for complete evaporation of DMSO (under vacuum) at room temperature for 2 hrs. After printing, the slides were exposed to UV irradiation 2.4 J/cm^2 (365 nm) in a UV chamber (Amersham life science). The slides were subsequently washed with DMSO, ethanol, and finally with distilled water for 15 minutes (ultrasonically), respectively, to remove non-covalently bound compounds. After drying with nitrogen, the slides were assembled with flow cell and then mounted on SPRi instrument for measurement, or stored at 4°C to be used for later experiments.
# All the experiments were carried out using the PlexArray® HT system (Plexera, LLC), which is based on surface plasmon resonance imaging. Oval regions of interests (ROIs) were set as 9 pixels × 7 pixels area in imaging area. ROIs of vehicle (DMSO) were used as controls for measurement of specific signals. All samples were injected with an association and dissociation flow rate of 3 μL s^−1 and at 25°C. A 1:3 mixture of glycine. HCL (pH 4.2) and 0.5% (v/v) SDS, respectively, was used to regenerate the surface and remove bound proteins from the small molecules enabling the sensor chip to be reused for additional analyte injections. […]
# [8] = target: T3, ΔSkp1^1−140 (Homo sapiens, UniProt P63208); test: LC-MS/MS analysis of in vitro binding; settings: ΔSkp1^1−140, overnight incubation
# T3 construct: pETDuet-Skp1(1-140); His6; made in house; host or cells: Escherichia coli BL21 (DE3)
# T3 sequence (P63208 1-140, stated change not applied): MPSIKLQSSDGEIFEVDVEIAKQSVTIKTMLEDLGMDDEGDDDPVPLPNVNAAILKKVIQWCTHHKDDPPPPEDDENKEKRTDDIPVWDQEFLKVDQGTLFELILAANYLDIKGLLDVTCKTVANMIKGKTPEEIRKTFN
smiles,measurement,setting,value
Nc1ccc(-c2nc3ccccc3c3[nH]c4ccccc4c23)cc1 [Z0933M],caspase 3/7 activity,[1],failed to do so
same,EC50,[2],4080 ± 950 nM
same,EC50,[3],970 ± 90 nM
same,EC50,[4],1460 ± 10 nM
same,cell cycle effect,[5],complete G2/M arrest
same,inhibition of Skp1-NIPA interaction (FRET ratio),[6],significant inhibition
same,Kd,"[7]; SPRi, Skp1^WT",54.7 ± 6.68 nM
same,Kd,[7]; as given in the summary,~54 nM
same,binding by LC-MS/MS,[8],robust binding
